Assay results as given in PMC6720511, “Synthesis and biological evaluation of novel N-(piperazin-1-yl)alkyl-1H-dibenzo[a,c]carbazole derivatives of dehydroabietic acid as potential MEK inhibitors” (Journal of Enzyme Inhibition and Medicinal Chemistry, 2019).
Peptide text beside a SMILES is read from it. * marks the point of attachment. Cbz = O=C(OCc1ccccc1)*; CH2F = FC*

Legend:
[1] = tested on: normal hepatocyte cell line (QSG-7701); test: MTT cytotoxic assay on normal hepatocytes; type: cell-based, human; settings: mean value ± SD
Method: (§1) Three human hepatocarcinoma cell lines (SMMC-7721, HepG2 and Hep3B) and normal hepatocyte cell line (QSG-7701) were maintained in Dulbecco Modified Eagle Medium (DMEM) containing 4.0 mM L-Glutamine and 4500 mg/l Glucose supplemented with 10% (v/v) foetalbovine serum (FBS) and 100 unites/mL penicillin/streptomycin at 37 °C in humidified atmosphere of 5% CO2 and 95% air.
(§2) The in vitro cytotoxic activities of the carbazole derivatives of DHA were evaluated against three human hepatocarcinoma cell lines (SMMC-7721, HepG2 and Hep3B) and a normal human hepatocyte cell line (QSG-7701) via the MTT colorimetric method. Briefly, SMMC-7721, HepG2, Hep3B and QSG-7701 cells were harvested at log phase of growth and seeded in 96-well plates (100 µL/well at a density of 2 × 10^5 cells/mL). After 24 h incubation at 37 °C and 5% CO2 to allow cell attachment, cultures were exposed to various concentrations of the isolated compounds for 48 h. Finally, MTT solution (2.5 mg/mL in PBS) was added (40 µL/well). Plates were further incubated for 4 h at 37 °C, and the formazan crystals formed were dissolved by adding 150 µL/well of DMSO. Absorption at 570 nm was measured with an ELISA plate reader. […] Doxorubicin was co-assayed as positive control.

[2] = biological target: T1, MEK1 (Homo sapiens, UniProt Q02750); test: In vitro MEK1 inhibition assay (ADP-Glo kinase assay); type: biochemical; settings: recombinant GST-MEK1, GST-ERK2, 10 µM ATP, mean value ± SD; read-out: MEK1 inhibitory activity IC50 value
T1 construct: purchased Carna Biosciences, Japan
Method: An in vitro kinase assay of MEK1 was performed using ADP-Glo kinase assay (Promega, Madison, WI, USA) according to the manufacturer’s protocol. […] Reactions were stopped by adding 5 µL of ADP-Glo reagent to each well. After incubating at 22 °C for 40 min, 10 µL of the kinase detection reagent was added and the plates were incubated for another 30 min at 22 °C in the dark. The reaction mixture was analysed by EnSpire (PerkinElmer, Waltham, MA, USA). U0126 was used as the positive control for MEK1 inhibition.

[3] = tested on: SMMC-7721; test: MTT cytotoxic assay; type: cell-based, human; settings: mean value ± SD
Method: as §1, §2

[4] = tested on: HepG2; test: MTT cytotoxic assay; type: cell-based, human; settings: mean value ± SD
Method: as §1, §2

[5] = tested on: Hep3B; test: MTT cytotoxic assay; type: cell-based, human; settings: 48 h, mean value ± SD
Method: as §1, §2

[6] = tested on: HepG2 cells; test: Cell death inhibition assay; type: cell-based, human; settings: 24 h
Method: Figure 6. Compound 10g induced oncosis and apoptosis of HepG2 cells. (a) PD150606 and Z-VAD-FMK partially reversed compound 10g-induced cell death. HepG2 cells were incubated with PD150606, Z-VAD-FMK or Necrostatin-1 at indicated concentration for 24 h alone or in combination with compound 10g at indicated concentration for 24 h. (b) Compound 10g induced the degradation of α-tubulin and β-actin, and activated oncosis marker calpain-1 autolysis from the 80 kDa event to 76 kDa event in western blot analysis. *, p < 0.01; **, p < 0.01; #, p < 0.01; &, p < 0.001. (c) Compound 10g induced the upregulation of apoptotic protein Bax, caspase-3, caspase-9 and plasmic cytochrome c levels, and the downregulation of antiapoptotic protein Bcl-2 level. *, p < 0.001; **, p < 0.01; #, p < 0.01; and p < 0.01.

[7] = tested on: three human hepatocarcinoma cell lines (SMMC-7721, HepG2 and Hep3B); test: MTT cytotoxic assay, statements over the three cancer cell lines; type: cell-based; settings: for cytotoxic activity against three cancer cell lines (in words): SMMC-7721, HepG2 and Hep3B
Method: as §1, §2

T1 sequence (Q02750 whole entry): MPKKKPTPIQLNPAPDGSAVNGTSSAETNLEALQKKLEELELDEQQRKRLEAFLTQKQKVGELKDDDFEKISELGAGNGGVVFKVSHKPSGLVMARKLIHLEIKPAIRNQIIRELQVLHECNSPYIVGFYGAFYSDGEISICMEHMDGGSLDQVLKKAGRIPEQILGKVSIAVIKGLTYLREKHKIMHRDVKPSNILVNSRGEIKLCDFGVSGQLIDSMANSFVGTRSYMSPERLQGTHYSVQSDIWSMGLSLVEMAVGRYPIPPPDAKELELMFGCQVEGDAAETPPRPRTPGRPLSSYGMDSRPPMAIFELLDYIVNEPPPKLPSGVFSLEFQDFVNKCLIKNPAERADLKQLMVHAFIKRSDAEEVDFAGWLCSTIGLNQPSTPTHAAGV

COC(=O)C1(C)CCCC2(C)c3ccc(C(C)C)cc3-c3c(c4cc(OC)ccc4n3CCN3CCNCC3)C12 (centres unmarked) [Compound 10e, 2,3,4,4a,9,13c-Hexahydro-7-isopropyl-12-methoxy-1,4a-dimethyl-9–(2-(piperazin-1-yl)ethyl)-1H-dibenzo[a,c]carbazole-1-carboxylic acid methyl ester]
IC50 ([1]; Homo sapiens, QSG7701, 48 h): 15.3 ± 1.13 µM
IC50 [2]: 1.28 ± 0.06 µM
IC50 ([3]; Homo sapiens, SMMC-7721, 48 h): 3.02 ± 0.21 µM
IC50 ([4]; Homo sapiens, HepG2, 48 h): 3.73 ± 0.19 µM
IC50 ([5]; Homo sapiens, Hep3B): 4.38 ± 0.35 µM

O=C(O)/C(S)=C/c1ccc(I)cc1 [PD150606]
relative cell viability of HepG2 cells treated with 10g plus inhibitor ([6]; 10g 10 µM in combination with PD150606 50 µM): 44.87%

COC(=O)C1(C)CCCC2(C)c3ccc(C(C)C)cc3-c3c(c4cc(F)ccc4n3CCN3CCNCC3)C12 (centres unmarked) [Compound 10i, 2,3,4,4a,9,13c-Hexahydro-12-fluoro-7-isopropyl-1,4a-dimethyl-9–(2-(piperazin-1-yl)ethyl)-1H-dibenzo[a,c]carbazole-1-carboxylic acid methyl ester]
IC50 ([1]; Homo sapiens, QSG7701, 48 h): 23.7 ± 1.53 µM
IC50 [2]: > 20 µM
IC50 ([3]; Homo sapiens, SMMC-7721, 48 h): 4.32 ± 0.27 µM
IC50 ([4]; Homo sapiens, HepG2, 48 h): 3.91 ± 0.34 µM
IC50 ([5]; Homo sapiens, Hep3B): 3.32 ± 0.2 µM

COC(=O)C1(C)CCCC2(C)c3ccc(C(C)C)cc3-c3c(c4cccc(C)c4n3CCN3CCNCC3)C12 (centres unmarked) [Compound 10b, 2,3,4,4a,9,13c-Hexahydro-7-isopropyl-1,4a,10-trimethyl-9–(2-(piperazin-1-yl)ethyl)-1H-dibenzo[a,c]carbazole-1-carboxylic acid methyl ester]
IC50 ([1]; Homo sapiens, QSG7701, 48 h): 21.9 ± 1.72 µM
IC50 [2]: > 20 µM
IC50 ([3]; Homo sapiens, SMMC-7721, 48 h): 5.52 ± 0.47 µM
IC50 ([4]; Homo sapiens, HepG2, 48 h): 6.11 ± 0.38 µM
IC50 ([5]; Homo sapiens, Hep3B): 5.03 ± 0.31 µM

COC(=O)C[C@H](NC(=O)[C@H](C)NC(=O)[C@@H](NC(=O)OCc1ccccc1)C(C)C)C(=O)CF [Z-VAD-FMK] (Cbz-Val-Ala-Asp(OMe)-CH2F)
relative cell viability of HepG2 cells treated with 10g plus inhibitor ([6]; 10g 10 µM in combination with Z-VAD-FMK): 16.53%

COC(=O)C1(C)CCCC2(C)c3ccc(C(C)C)cc3-c3c(c4cc(C(C)C)ccc4n3CCN3CCNCC3)C12 (centres unmarked) [Compound 10d, 2,3,4,4a,9,13c-Hexahydro-7,12-diisopropyl-1,4a-dimethyl-9–(2-(piperazin-1-yl)ethyl)-1H-dibenzo[a,c]carbazole-1-carboxylic acid methyl ester]
IC50 ([1]; Homo sapiens, QSG7701, 48 h): 31 ± 2.39 µM
IC50 [2]: > 20 µM
IC50 ([3]; Homo sapiens, SMMC-7721, 48 h): 10.5 ± 0.48 µM
IC50 ([4]; Homo sapiens, HepG2, 48 h): 8.42 ± 0.39 µM
IC50 ([5]; Homo sapiens, Hep3B): 8.85 ± 0.42 µM

CCc1ccc2c(c1)c1c(n2CCN2CCNCC2)-c2cc(C(C)C)ccc2C2(C)CCCC(C)(C(=O)OC)C12 (centres unmarked) [Compound 10c, 2,3,4,4a,9,13c-Hexahydro-12-ethyl-7-isopropyl-1,4a-dimethyl-9–(2-(piperazin-1-yl)ethyl)-1H-dibenzo[a,c]carbazole-1-carboxylic acid methyl ester]
IC50 ([1]; Homo sapiens, QSG7701, 48 h): 22.2 ± 1.81 µM
IC50 [2]: > 20 µM
IC50 ([3]; Homo sapiens, SMMC-7721, 48 h): 6.56 ± 0.19 µM
IC50 ([4]; Homo sapiens, HepG2, 48 h): 7.27 ± 0.51 µM
IC50 ([5]; Homo sapiens, Hep3B): 5.84 ± 0.36 µM

CCOc1cccc2c3c(n(CCN4CCNCC4)c12)-c1cc(C(C)C)ccc1C1(C)CCCC(C)(C(=O)OC)C31 (centres unmarked) [Compound 10h, 2,3,4,4a,9,13c-Hexahydro-10-ethoxy-7-isopropyl-1,4a-dimethyl-9–(2-(piperazin-1-yl)ethyl)-1H-dibenzo[a,c]carbazole-1-carboxylic acid methyl ester]
IC50 ([1]; Homo sapiens, QSG7701, 48 h): 18.9 ± 1.09 µM
IC50 [2]: 1.63 ± 0.12 µM
IC50 ([3]; Homo sapiens, SMMC-7721, 48 h): 2.21 ± 0.17 µM
IC50 ([4]; Homo sapiens, HepG2, 48 h): 4.87 ± 0.48 µM
IC50 ([5]; Homo sapiens, Hep3B): 1.78 ± 0.12 µM

COC(=O)C1(C)CCCC2(C)c3ccc(C(C)C)cc3-c3c(c4cccc(OC)c4n3CCN3CCNCC3)C12 (centres unmarked) [Compound 10f, 2,3,4,4a,9,13c-Hexahydro-7-isopropyl-10-methoxy-1,4a-dimethyl-9–(2-(piperazin-1-yl)ethyl)-1H-dibenzo[a,c]carbazole-1-carboxylic acid methyl ester]
IC50 ([1]; Homo sapiens, QSG7701, 48 h): 17.3 ± 0.78 µM
IC50 [2]: 0.23 ± 0.03 µM
IC50 ([3]; Homo sapiens, SMMC-7721, 48 h): 2.03 ± 0.15 µM
IC50 ([4]; Homo sapiens, HepG2, 48 h): 3.15 ± 0.13 µM
IC50 ([5]; Homo sapiens, Hep3B): 2.23 ± 0.16 µM

2,3,4,4a,9,13c-Hexahydro-7-isopropyl-1,4a-dimethyl-9–(2-(4-formylpiperazin-1-yl)propyl)-1H-dibenzo[a,c]carbazole-1-carboxylic acid methyl ester [Compound 7e]
cytotoxic activity against three cancer cell lines (in words) [7]: moderate inhibitions
IC50 ([1]; 48 h): > 50 µM
IC50 ([3]; 48 h): 23.3 ± 2.35 µM
IC50 ([4]; 48 h): 16.9 ± 1.58 µM
IC50 [5]: 20 ± 1.22 µM

CCN1CCN(CCn2c3c(c4ccccc42)C2C(C)(C(=O)OC)CCCC2(C)c2ccc(C(C)C)cc2-3)CC1 (centres unmarked) [Compound 6c, 2,3,4,4a,9,13c-Hexahydro-7-isopropyl-1,4a-dimethyl-9–(2-(4-ethylpiperazin-1-yl)ethyl)-1H-dibenzo[a,c]carbazole-1-carboxylic acid methyl ester]
cytotoxic activity against three cancer cell lines (in words) [7]: moderate activity
IC50 ([1]; Homo sapiens, QSG7701, 48 h): 41.1 ± 3.69 µM
IC50 ([3]; Homo sapiens, SMMC-7721, 48 h): 14 ± 2.1 µM
IC50 ([4]; Homo sapiens, HepG2, 48 h): 17.4 ± 1.73 µM
IC50 ([5]; Homo sapiens, Hep3B): 11 ± 0.65 µM

CN1C(=O)C(Cc2c[nH]c3ccccc23)NC1=S (centres unmarked) [Necrostatin-1]
effect of inhibitor on cell death caused by compound 10g (in words) ([6]; in combination with 10g): no apparent effect

COC(=O)C1(C)CCCC2(C)c3ccc(C(C)C)cc3-c3c(c4ccccc4n3CCN3CCN(C=O)CC3)C12 (centres unmarked) [Compound 6e, 2,3,4,4a,9,13c-Hexahydro-7-isopropyl-1,4a-dimethyl-9–(2-(4-formylpiperazin-1-yl)ethyl)-1H-dibenzo[a,c]carbazole-1-carboxylic acid methyl ester]
cytotoxic activity against three cancer cell lines (in words) [7]: moderate inhibitions
IC50 ([1]; Homo sapiens, QSG7701, 48 h): > 50 µM
IC50 ([3]; Homo sapiens, SMMC-7721, 48 h): 17.3 ± 1.78 µM
IC50 ([4]; Homo sapiens, HepG2, 48 h): 15.7 ± 1.61 µM
IC50 ([5]; Homo sapiens, Hep3B): 11.4 ± 0.53 µM

COC(=O)C1(C)CCCC2(C)c3ccc(C(C)C)cc3-c3c(c4cc(Cl)ccc4n3CCN3CCNCC3)C12 (centres unmarked) [Compound 10j, 2,3,4,4a,9,13c-Hexahydro-12-chloro-7-isopropyl-1,4a-dimethyl-9–(2-(piperazin-1-yl)ethyl)-1H-dibenzo[a,c]carbazole-1-carboxylic acid methyl ester]
IC50 ([1]; Homo sapiens, QSG7701, 48 h): 12.2 ± 1.01 µM
IC50 [2]: 5.62 ± 0.48 µM
IC50 ([3]; Homo sapiens, SMMC-7721, 48 h): 2.49 ± 0.18 µM
IC50 ([4]; Homo sapiens, HepG2, 48 h): 2.88 ± 0.23 µM
IC50 ([5]; Homo sapiens, Hep3B): 3.75 ± 0.34 µM

COC(=O)C1(C)CCCC2(C)c3ccc(C(C)C)cc3-c3c(c4cc(C)ccc4n3CCN3CCNCC3)C12 (centres unmarked) [Compound 10a, 2,3,4,4a,9,13c-Hexahydro-7-isopropyl-1,4a,12-trimethyl-9–(2-(piperazin-1-yl)ethyl)-1H-dibenzo[a,c]carbazole-1-carboxylic acid methyl ester]
IC50 ([1]; Homo sapiens, QSG7701, 48 h): 16.3 ± 1.56 µM
IC50 [2]: 6.36 ± 0.51 µM
IC50 ([3]; Homo sapiens, SMMC-7721, 48 h): 1.73 ± 0.22 µM
IC50 ([4]; Homo sapiens, HepG2, 48 h): 3.05 ± 0.37 µM
IC50 ([5]; Homo sapiens, Hep3B): 1.17 ± 0.12 µM

COC(=O)C1(C)CCCC2(C)c3ccc(C(C)C)cc3-c3c(c4ccccc4n3CCCN3CCN(C)CC3)C12 (centres unmarked) [Compound 7b, 2,3,4,4a,9,13c-Hexahydro-7-isopropyl-1,4a-dimethyl-9–(3-(4-methylpiperazin-1-yl)propyl)-1H-dibenzo[a,c]carbazole-1-carboxylic acid methyl ester]
IC50 ([7]; Homo sapiens, at least one of SMMC-7721, HepG2, Hep3B, read-out: IC50 against at least one hepatocarcinoma cell line): < 10 µM
IC50 ([1]; Homo sapiens, QSG7701, 48 h): > 50 µM
IC50 ([3]; Homo sapiens, SMMC-7721, 48 h): 6.8 ± 0.72 µM
IC50 ([4]; Homo sapiens, HepG2, 48 h): 29 ± 1.29 µM
IC50 ([5]; Homo sapiens, Hep3B): 5.98 ± 0.39 µM
